Experiments:
human MRP2 = human MRP2 (Homo sapiens, UniProt Q92887); assay: Vesicular transport assay, inside-out membrane vesicles expressing human MRP2; conditions: positive substrate 20 μM, 10 min; human MRP2
Method: (§1) Inside-out membrane vesicles (5 mg protein/mL), prepared from insect cells expressing human multidrug resistance-associated protein (MRP) 2, MRP3, MRP4, breast cancer resistance protein (BCRP), bile salt export pump (BSEP), and multidrug resistance protein (MDR) one and rat Mrp2, Mrp4, Bcrp, and Bsep, and vesicles (5 mg protein/mL; prepared from the insect cells expressing no ABC transporter; serving as negative control) were obtained from Genomembrane (Kanazawa, Japan).
(§2) The test Danshen compounds at 100 µM final concentration were separately incubated with the membrane vesicles for 10 min. Buffer C (50 mM MOPS-tris, 70 mM KCl, 7.5 mM MgCl2, pH 7.0) was used for preincubation and incubation, while buffer D (40 mM MOPS-tris, 70 mM KCl, pH 7.0) was used for vesicle washing. The transport rate (pmol/mg protein/min) of the test Danshen compound was calculated using Equation (2): Transport=(CV×VV)/T/WV (2) where C V, V V, T, and W V represent concentration of the compound in vesicular lysates supernatant (μM), volume of the lysates (μL), incubation time (10 min), and amount of vesicle protein amount per well (0.05 mg), respectively. Differential transport of the test Danshen compound between ATP-containing vesicles and AMP-containing vesicles was defined as net transport ratio (TransportATP/TransportAMP ratio). […] All the incubation samples were analyzed by liquid chromatography/mass spectrometry.

rat Mrp2 = rat Mrp2 (Rattus norvegicus, UniProt Q63120); assay: Vesicular transport assay, inside-out membrane vesicles expressing rat Mrp2; conditions: positive substrate 20 μM, 10 min; rat Mrp2
rat Mrp2, sequence (Q63120 whole entry): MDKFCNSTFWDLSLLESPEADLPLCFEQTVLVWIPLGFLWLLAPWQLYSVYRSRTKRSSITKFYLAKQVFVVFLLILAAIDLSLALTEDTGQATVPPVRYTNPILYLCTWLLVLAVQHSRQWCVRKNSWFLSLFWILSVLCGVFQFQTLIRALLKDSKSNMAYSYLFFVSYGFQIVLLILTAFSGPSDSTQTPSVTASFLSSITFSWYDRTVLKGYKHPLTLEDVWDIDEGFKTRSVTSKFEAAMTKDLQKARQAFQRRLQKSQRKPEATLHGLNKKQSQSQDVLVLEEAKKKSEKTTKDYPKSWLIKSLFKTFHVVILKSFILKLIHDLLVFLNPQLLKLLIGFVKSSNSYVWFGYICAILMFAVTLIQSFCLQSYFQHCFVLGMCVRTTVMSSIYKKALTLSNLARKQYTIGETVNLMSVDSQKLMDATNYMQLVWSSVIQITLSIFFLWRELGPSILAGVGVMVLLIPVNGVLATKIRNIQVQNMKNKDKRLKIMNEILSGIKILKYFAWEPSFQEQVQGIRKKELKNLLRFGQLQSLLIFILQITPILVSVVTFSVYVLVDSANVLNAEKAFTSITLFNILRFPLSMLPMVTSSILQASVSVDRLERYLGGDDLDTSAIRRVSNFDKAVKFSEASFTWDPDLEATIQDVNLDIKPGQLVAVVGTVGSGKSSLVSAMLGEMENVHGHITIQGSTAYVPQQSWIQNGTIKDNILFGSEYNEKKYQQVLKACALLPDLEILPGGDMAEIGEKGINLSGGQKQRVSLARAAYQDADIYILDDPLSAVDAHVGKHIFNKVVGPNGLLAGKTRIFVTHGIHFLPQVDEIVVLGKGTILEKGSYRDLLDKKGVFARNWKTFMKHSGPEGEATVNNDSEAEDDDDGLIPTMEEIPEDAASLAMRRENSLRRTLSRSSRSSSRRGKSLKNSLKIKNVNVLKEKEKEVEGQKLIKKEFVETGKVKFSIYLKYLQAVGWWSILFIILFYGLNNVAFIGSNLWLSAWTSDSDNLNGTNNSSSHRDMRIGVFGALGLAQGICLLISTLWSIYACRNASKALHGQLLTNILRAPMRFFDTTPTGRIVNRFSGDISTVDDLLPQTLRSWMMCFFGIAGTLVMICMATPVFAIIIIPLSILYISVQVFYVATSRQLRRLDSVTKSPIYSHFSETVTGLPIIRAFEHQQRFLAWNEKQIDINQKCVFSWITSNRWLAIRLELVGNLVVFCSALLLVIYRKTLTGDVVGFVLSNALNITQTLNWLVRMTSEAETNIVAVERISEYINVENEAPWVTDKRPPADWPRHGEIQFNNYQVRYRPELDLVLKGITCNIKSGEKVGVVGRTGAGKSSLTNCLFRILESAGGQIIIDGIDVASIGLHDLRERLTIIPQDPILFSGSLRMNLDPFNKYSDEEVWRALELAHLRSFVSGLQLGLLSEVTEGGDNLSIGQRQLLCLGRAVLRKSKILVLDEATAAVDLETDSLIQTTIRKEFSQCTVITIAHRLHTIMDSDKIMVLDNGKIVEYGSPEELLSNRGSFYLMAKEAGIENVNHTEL
Method: as §1, §2

human MRP3 = human MRP3 (Homo sapiens, UniProt O15438); assay: Vesicular transport assay, inside-out membrane vesicles expressing human MRP3; conditions: positive substrate 20 μM, 10 min; human MRP3
human MRP3, sequence (O15438 whole entry): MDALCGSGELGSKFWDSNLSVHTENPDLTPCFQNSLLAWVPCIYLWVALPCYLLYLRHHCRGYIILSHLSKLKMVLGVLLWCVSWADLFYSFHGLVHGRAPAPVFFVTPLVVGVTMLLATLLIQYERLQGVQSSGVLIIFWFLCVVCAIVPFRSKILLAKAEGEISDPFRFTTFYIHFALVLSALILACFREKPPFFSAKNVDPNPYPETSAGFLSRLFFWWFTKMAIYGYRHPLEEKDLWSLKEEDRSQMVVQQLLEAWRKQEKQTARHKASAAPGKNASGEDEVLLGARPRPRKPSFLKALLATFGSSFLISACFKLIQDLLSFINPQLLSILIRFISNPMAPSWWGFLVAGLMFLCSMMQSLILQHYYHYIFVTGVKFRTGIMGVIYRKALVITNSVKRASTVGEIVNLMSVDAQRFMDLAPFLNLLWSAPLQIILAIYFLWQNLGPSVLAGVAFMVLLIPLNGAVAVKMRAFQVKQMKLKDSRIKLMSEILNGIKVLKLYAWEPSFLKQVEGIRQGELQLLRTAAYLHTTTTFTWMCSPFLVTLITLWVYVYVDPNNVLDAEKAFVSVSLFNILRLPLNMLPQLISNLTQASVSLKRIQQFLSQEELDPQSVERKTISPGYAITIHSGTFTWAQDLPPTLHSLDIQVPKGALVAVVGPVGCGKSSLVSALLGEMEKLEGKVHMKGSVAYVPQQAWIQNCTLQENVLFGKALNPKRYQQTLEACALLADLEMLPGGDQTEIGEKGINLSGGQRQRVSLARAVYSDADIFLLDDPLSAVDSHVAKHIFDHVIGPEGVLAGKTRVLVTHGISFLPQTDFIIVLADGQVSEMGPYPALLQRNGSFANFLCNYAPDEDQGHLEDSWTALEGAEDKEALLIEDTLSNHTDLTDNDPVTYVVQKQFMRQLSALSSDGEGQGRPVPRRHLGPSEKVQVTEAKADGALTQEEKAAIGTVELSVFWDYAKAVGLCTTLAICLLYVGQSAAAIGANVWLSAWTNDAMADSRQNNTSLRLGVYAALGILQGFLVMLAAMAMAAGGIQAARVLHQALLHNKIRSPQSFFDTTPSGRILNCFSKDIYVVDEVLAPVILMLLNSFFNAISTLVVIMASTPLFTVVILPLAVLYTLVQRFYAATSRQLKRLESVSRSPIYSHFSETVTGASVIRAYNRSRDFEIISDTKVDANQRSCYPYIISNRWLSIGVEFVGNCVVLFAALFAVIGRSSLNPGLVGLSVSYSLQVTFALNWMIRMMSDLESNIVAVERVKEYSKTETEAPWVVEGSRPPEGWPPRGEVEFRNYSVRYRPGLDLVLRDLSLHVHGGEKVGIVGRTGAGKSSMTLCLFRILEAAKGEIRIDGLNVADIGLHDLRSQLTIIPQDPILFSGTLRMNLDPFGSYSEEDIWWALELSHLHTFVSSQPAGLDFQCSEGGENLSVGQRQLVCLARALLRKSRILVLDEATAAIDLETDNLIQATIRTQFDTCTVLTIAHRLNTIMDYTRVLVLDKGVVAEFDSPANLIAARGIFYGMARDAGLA
Method: as §1, §2

rat Oatp1b2 = molecular target: T1, rat Oatp1b2 (Rattus norvegicus, UniProt Q9QZX8); assay: Cellular transport assay, HEK-293 cells expressing rat Oatp1b2; conditions: positive substrate 20 μM, 10 min; rat Oatp1b2
T1 sequence (Q9QZX8 1-687): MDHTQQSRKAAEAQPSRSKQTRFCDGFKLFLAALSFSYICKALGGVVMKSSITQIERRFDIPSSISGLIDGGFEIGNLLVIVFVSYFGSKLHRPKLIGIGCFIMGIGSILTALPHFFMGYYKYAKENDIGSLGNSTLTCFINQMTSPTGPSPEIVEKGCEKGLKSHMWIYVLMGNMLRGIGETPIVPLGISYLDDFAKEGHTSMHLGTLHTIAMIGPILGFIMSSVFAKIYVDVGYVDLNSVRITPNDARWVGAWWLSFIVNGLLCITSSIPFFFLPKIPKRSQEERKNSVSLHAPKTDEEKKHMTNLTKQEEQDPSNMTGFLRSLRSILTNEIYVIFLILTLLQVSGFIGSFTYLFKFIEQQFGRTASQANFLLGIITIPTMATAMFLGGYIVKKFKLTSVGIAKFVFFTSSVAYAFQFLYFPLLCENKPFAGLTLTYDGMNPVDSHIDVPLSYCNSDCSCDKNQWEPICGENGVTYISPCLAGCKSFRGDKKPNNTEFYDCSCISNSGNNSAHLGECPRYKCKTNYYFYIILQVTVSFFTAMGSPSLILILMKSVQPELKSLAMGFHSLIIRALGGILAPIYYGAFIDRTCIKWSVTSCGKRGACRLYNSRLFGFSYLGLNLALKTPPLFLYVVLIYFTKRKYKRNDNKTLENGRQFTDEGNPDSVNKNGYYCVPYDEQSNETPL
Method: (§3) Briefly, HEK-293 cells were grown, at 37°C and 5% CO2, in Dulbecco’s modified Eagle’s medium, which was fortified with 10% fetal bovine serum, 1% minimal essential medium nonessential amino acids, and 1% antibiotic-antimycotic solution. A day before transfection, cells were seeded onto 24-well poly-D-lysine-coated plates at a density of 2 × 10^5 cells per well. After incubation at 37°C and 5% CO2 for 24 h, the expression plasmid and the empty vector were introduced separately into the HEK293 cells with Lipofectamine 2000 transfection reagent (Invitrogen, Carlsbad, CA, United States), according to the manufacturer’s protocol to yield transporter-expressing cells and mock cells, respectively.
(§4) Transport studies were performed 48 h after the transfection. […] Differential uptake between the transfected cells and mock cells was defined as net transport ratio (TransportTC/TransportMC ratio), where TransportTC and TransportMC are the transport rates of a test Danshen compound into transfected and mock cells, respectively. […] The determination was performed under linear uptake conditions by incubation for 5 min. Table 1 summarizes the final concentrations of the test Danshen compounds for different transporters. All the incubation samples were analyzed by liquid chromatography/mass spectrometry.
(§5) GraFit software (version 5.0; Erithacus Software Ltd, Surrey, United Kingdom) was used to determine the K m and V max values by nonlinear regression analysis of initial transport rates as a function of substrate concentration.

OATP1B3 = molecular target: T2, OATP1B3 (Homo sapiens, UniProt Q9NPD5); assay: Cellular transport assay, HEK-293 cells expressing human OATP1B3; conditions: positive substrate 20 μM, 10 min; human OATP1B3
T2 sequence (Q9NPD5 1-702): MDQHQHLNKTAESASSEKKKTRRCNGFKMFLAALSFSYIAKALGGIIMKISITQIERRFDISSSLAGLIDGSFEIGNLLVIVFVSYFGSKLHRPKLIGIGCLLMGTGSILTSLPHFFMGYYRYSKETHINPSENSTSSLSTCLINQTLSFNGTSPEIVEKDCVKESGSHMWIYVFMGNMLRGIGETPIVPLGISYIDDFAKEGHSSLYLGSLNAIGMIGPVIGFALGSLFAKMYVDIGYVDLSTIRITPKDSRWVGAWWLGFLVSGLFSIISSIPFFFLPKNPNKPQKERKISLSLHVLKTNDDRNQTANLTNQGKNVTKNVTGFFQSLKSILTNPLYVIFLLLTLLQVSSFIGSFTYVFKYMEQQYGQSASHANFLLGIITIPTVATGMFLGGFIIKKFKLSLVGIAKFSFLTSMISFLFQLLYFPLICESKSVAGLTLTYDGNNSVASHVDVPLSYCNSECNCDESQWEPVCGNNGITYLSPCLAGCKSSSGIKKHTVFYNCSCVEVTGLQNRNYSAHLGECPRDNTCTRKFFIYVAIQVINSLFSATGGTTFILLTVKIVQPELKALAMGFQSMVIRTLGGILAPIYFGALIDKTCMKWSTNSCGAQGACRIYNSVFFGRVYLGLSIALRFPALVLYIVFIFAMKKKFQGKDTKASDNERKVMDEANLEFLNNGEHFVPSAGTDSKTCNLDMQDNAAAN
Method: as §3, §4, §5

human OATP1B1 = molecular target: T3, human OATP1B1 (Homo sapiens, UniProt Q9Y6L6); assay: Cellular transport assay, HEK-293 cells expressing human OATP1B1; conditions: positive substrate 20 μM, 10 min; human OATP1B1
T3 sequence (Q9Y6L6 1-691): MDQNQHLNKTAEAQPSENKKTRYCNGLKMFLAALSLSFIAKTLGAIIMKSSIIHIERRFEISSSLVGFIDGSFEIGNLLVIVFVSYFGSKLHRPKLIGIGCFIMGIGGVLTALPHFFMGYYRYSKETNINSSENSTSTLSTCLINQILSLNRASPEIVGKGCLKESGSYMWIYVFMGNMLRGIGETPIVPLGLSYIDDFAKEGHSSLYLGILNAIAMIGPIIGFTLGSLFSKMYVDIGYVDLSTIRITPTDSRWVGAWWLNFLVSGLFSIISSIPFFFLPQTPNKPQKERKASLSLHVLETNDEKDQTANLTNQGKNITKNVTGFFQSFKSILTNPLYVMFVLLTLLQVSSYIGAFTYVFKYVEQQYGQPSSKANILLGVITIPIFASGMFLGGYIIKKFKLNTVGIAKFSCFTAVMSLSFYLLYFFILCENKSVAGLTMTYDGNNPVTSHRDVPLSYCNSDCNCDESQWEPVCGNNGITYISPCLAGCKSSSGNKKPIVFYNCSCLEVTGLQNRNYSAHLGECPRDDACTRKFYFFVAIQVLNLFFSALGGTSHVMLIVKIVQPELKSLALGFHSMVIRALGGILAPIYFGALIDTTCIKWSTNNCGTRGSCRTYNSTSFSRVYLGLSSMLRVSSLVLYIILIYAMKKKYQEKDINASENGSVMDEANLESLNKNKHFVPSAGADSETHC
Method: as §3, §4, §5

human MDR1 = human MDR1 (Homo sapiens, UniProt P08183); assay: Vesicular transport assay, inside-out membrane vesicles expressing human MDR1; conditions: positive substrate 20 μM, 10 min; human MDR1
human MDR1, sequence (P08183 whole entry): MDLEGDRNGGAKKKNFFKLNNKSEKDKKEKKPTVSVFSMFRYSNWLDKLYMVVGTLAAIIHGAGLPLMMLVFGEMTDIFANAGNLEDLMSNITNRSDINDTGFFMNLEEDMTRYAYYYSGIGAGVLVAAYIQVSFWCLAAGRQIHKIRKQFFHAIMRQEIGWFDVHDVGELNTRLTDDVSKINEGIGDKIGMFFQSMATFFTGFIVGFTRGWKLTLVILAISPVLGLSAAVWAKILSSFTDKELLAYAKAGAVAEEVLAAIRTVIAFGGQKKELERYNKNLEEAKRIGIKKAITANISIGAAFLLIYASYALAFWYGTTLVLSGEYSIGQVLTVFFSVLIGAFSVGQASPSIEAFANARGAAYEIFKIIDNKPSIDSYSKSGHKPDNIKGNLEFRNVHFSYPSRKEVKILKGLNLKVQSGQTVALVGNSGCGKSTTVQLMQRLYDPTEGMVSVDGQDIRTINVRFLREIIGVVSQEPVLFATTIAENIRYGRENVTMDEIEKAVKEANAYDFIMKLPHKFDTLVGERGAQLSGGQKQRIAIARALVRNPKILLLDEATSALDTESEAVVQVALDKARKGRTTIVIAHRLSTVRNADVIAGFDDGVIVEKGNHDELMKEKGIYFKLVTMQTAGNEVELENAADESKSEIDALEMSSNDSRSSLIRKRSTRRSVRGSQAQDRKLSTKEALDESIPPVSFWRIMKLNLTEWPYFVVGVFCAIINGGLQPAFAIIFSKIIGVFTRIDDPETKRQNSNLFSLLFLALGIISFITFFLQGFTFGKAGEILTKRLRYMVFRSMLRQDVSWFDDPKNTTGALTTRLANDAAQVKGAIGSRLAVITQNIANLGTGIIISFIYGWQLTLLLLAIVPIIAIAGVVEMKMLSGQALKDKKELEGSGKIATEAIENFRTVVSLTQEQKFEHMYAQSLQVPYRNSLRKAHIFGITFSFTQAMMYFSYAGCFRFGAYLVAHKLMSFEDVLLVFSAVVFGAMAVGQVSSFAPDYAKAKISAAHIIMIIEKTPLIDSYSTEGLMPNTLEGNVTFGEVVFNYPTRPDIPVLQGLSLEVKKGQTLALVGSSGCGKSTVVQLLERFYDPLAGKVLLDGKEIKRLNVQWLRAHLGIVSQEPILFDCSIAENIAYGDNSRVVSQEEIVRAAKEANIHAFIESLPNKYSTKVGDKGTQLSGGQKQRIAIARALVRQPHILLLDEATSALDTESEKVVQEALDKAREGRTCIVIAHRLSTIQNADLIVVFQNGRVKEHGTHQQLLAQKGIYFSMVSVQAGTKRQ
Method: as §1, §2

rat Oat2 = molecular target: T4, rat Oat2 (Rattus norvegicus, UniProt Q5RLM2); assay: Cellular transport assay, HEK-293 cells expressing rat Oat2; conditions: positive substrate 20 μM, 10 min; rat Oat2
T4 sequence (Q5RLM2 1-535): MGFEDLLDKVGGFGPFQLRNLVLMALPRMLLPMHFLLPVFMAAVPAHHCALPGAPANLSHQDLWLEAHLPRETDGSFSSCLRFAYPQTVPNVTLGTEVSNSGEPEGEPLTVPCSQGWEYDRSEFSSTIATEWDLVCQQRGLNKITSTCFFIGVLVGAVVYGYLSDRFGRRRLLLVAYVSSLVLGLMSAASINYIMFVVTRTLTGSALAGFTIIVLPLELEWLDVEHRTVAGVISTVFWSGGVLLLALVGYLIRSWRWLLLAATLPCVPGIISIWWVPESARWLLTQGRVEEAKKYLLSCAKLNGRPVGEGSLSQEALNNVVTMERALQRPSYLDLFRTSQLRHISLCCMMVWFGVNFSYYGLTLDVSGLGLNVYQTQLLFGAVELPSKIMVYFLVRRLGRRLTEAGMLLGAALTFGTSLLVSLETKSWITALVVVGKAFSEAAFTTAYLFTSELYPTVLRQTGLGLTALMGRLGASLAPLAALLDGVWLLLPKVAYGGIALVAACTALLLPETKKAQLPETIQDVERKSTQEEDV
Method: as §3, §4, §5

human OAT2 = molecular target: T5, human OAT2 (Homo sapiens, UniProt Q9Y694); assay: Cellular transport assay, HEK-293 cells expressing human OAT2; conditions: positive substrate 20 μM, 10 min; human OAT2
T5 sequence (Q9Y694 1-546 isoform Q9Y694-2): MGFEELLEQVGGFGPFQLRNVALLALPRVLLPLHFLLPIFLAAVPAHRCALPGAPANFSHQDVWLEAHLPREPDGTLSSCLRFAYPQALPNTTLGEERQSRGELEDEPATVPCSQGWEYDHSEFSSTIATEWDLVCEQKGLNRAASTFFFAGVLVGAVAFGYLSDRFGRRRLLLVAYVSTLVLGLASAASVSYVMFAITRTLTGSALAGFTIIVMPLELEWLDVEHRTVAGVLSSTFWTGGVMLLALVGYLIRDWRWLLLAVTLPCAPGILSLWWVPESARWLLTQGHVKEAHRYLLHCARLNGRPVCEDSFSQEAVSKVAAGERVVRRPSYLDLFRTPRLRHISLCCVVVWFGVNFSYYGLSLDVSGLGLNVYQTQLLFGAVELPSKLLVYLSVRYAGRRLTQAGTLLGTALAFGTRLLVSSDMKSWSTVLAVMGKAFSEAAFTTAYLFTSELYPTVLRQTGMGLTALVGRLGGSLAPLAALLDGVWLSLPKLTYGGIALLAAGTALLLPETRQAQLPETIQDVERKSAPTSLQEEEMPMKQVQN
Method: as §3, §4, §5

[1] = substrate: O=C(/C=C/c1ccc(O)c(O)c1)O[C@H](Cc1ccc(O)c(O)c1)C(=O)O; assay: cells, lysate or membranes named; conditions: other: human renal apical uptake OAT4; 5 min incubation, concentrations in Table 1; 37.0 °C

In the case of C[C@]12CC[C@@H]3c4ccc(O)cc4CC[C@H]3[C@@H]1CC[C@@H]2O[C@@H]1O[C@H](C(=O)O)[C@@H](O)[C@H](O)[C@H]1O [E217βG, estradiol-17β-D-glucuronide, reference compound], the “TransportATP/TransportAMP ratio, positive substrate” value (“TransportATP/TransportAMP ratio” below) (human MRP2) is reported as 7.23 ± 1.04 (E217βG), the “TransportATP/TransportAMP ratio” value (rat Mrp2) is reported as 3.54 ± 0.32 (E217βG) and the “TransportATP/TransportAMP ratio” value (human MRP3) is reported as 6.79 ± 1.49 (E217βG).

With CC1(C)[C@@H](O[C@H]2O[C@H](C(=O)O)[C@@H](O)[C@H](O)[C@H]2O[C@@H]2O[C@H](C(=O)O)[C@@H](O)[C@H](O)[C@H]2O)CC[C@]2(C)[C@H]3C(=O)C=C4[C@@H]5C[C@@](C)(C(=O)O)CC[C@]5(C)CC[C@@]4(C)[C@]3(C)CC[C@@H]12 [GL, glycyrrhizin, reference compound] the “TransportTC/TransportMC ratio, positive substrate” value (from here on “TransportTC/TransportMC ratio”) (rat Oatp1b2) was 121 ± 2 (GL), the “TransportTC/TransportMC ratio” value (OATP1B3) was 33.1 ± 0.5 (GL) and the “TransportTC/TransportMC ratio” value (human OATP1B1) was 79.5 ± 1.3 (GL). For the same molecule, the “TransportATP/TransportAMP ratio” value (human MDR1) was 5.13 ± 0.87 (GL).

For CCCCC[C@H](O)/C=C/[C@@H]1[C@@H](C/C=C\CCCC(=O)O)[C@@H](O)C[C@H]1O [PGF2α, prostaglandin F2α, reference compound], the “TransportTC/TransportMC ratio” value (rat Oat2) was 24.3 ± 3.3 (PGF2α) and the “TransportTC/TransportMC ratio” value (human OAT2) was 70.2 ± 6.6 (PGF2α).

B1: human OAT4 (Homo sapiens) (protein)
chain: MAFSKLLEQAGGVGLFQTLQVLTFILPCLMIPSQMLLENFSAAIPGHRCWTHMLDNGSAVSTNMTPKALLTISIPPGPNQGPHQCRRFRQPQWQLLDPNATATSWSEADTEPCVDGWVYDRSVFTSTIVAKWDLVCSSQGLKPLSQSIFMSGILVGSFIWGLLSYRFGRKPMLSWCCLQLAVAGTSTIFAPTFVIYCGLRFVAAFGMAGIFLSSLTLMVEWTTTSRRAVTMTVVGCAFSAGQAALGGLAFALRDWRTLQLAASVPFFAISLISWWLPESARWLIIKGKPDQALQELRKVARINGHKEAKNLTIEVLMSSVKEEVASAKEPRSVLDLFCVPVLRWRSCAMLVVNFSLLISYYGLVFDLQSLGRDIFLLQALFGAVDFLGRATTALLLSFLGRRTIQAGSQAMAGLAILANMLVPQDLQTLRVVFAVLGKGCFGISLTCLTIYKAELFPTPVRMTADGILHTVGRLGAMMGPLILMSRQALPLLPPLLYGVISIASSLVVLFFLPETQGLPLPDTIQDLESQKSTAAQGNRQEAVTVESTSL
B1 gave a Vmax [1] of 4.75e-05 µmol/min/mg and a Vmax/Km [1] of 0.15 µL/min/mg.
